From PubChem BioAssay AID1845217 (Molecular Pharmacology Branch, DTP, NCI, 2023)

Test system: VA-ES-BJ tumor spheroid viability
Experiment: Anticancer human tumor VA-ES-BJ cell line growth inhibition;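 note: spheroids exposed to compounds for seven days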;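 for viability, T/C: percent of DMSO vehicle control viability so 100% = untreated growth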
Settings: spheroids with HUVEC and MSC; for IC50: curve of first compound; for viability, T/C: stronger effect = lower value
In short: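 Single agents and combinations were tested on spheroids built from tumor cells plus HUVEC and hMSC, at half-log dilutions starting at or near clinical Cmax, else 10 microM; final DMSO 0.25% (v/v).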

[1] = second compound 1 µM, first compound 0.00949 µM
[2] = second compound 1 µM, first compound 0.03 µM
[3] = second compound 1 µM, first compound 0.0949 µM
[4] = second compound 1 µM, first compound 0.3 µM
[5] = second compound 1 µM, first compound 0.949 µM
[6] = second compound 1 µM, first compound 3 µM
[7] = second compound 3.16 µM, first compound 0.00949 µM
[8] = second compound 3.16 µM, first compound 0.03 µM
[9] = second compound 3.16 µM, first compound 0.0949 µM
[10] = second compound 3.16 µM, first compound 0.3 µM
[11] = second compound 3.16 µM, first compound 0.949 µM
[12] = second compound 3.16 µM, first compound 3 µM
[13] = second compound 10 µM, first compound 0.00949 µM
[14] = second compound 10 µM, first compound 0.03 µM
[15] = second compound 10 µM, first compound 0.0949 µM
[16] = second compound 10 µM, first compound 0.3 µM
[17] = second compound 10 µM, first compound 0.949 µM
[18] = second compound 10 µM, first compound 3 µM
[19] = second compound 31.6 µM, first compound 0.00949 µM
[20] = second compound 31.6 µM, first compound 0.03 µM
[21] = second compound 31.6 µM, first compound 0.0949 µM
[22] = second compound 31.6 µM, first compound 0.3 µM
[23] = second compound 31.6 µM, first compound 0.949 µM
[24] = second compound 31.6 µM, first compound 3 µM
[25] = second compound 100 µM, first compound 0.00949 µM
[26] = second compound 100 µM, first compound 0.03 µM
[27] = second compound 100 µM, first compound 0.0949 µM
[28] = second compound 100 µM, first compound 0.3 µM
[29] = second compound 100 µM, first compound 0.949 µM
[30] = second compound 100 µM, first compound 3 µM

Structure (SMILES)	IC50 (second compound 1 µM) [nM]	IC50 (second compound 3.16 µM) [nM]	IC50 (second compound 10 µM) [nM]	IC50 (second compound 31.6 µM) [nM]	IC50 (second compound 100 µM) [nM]	viability, T/C [3] [%]	viability, T/C [4] [%]	viability, T/C [5] [%]	viability, T/C [6] [%]	viability, T/C [9] [%]	viability, T/C [10] [%]	viability, T/C [11] [%]	viability, T/C [12] [%]	viability, T/C [15] [%]	viability, T/C [16] [%]	viability, T/C [17] [%]	viability, T/C [18] [%]	viability, T/C [21] [%]	viability, T/C [22] [%]	viability, T/C [23] [%]	further results
CNCc1ccc(-c2cc(-c3nc(-c4ccc(S(=O)(=O)C(C)C)cc4)cnc3N)on2)cc1 + Cn1nnc2c(C(N)=O)ncn2c1=O	404	370	339	289	188	84	63.3	11.8	2.45	74.4	59.9	12.8	1.99	79.1	56.1	10.4	2.81	72.7	53.5	10.2	viability, T/C [1]: 87.8%; viability, T/C [2]: 82%; viability, T/C [7]: 85.5%; viability, T/C [8]: 85.3%; viability, T/C [13]: 86.9%; viability, T/C [14]: 92.2%; viability, T/C [19]: 91.1%; viability, T/C [20]: 85%; viability, T/C [24]: 3.57%; viability, T/C [25]: 95.6%; viability, T/C [26]: 76.7%; viability, T/C [27]: 68%; viability, T/C [28]: 41.7%; viability, T/C [29]: 11.7%; viability, T/C [30]: 2.21%
Cc1sc2c(c1C)C(c1ccc(Cl)cc1)=NC(CC(=O)Nc1ccc(O)cc1)c1nnc(C)n1-2 (stereo not given) + Cn1nnc2c(C(N)=O)ncn2c1=O	103	93.7	83.1	80.6	68.6	51.6	33.5	25.9	17.1	50.7	31.1	19.9	17.7	49.1	30.8	24.8	15.8	51.2	31.9	21.3	viability, T/C [1]: 83.5%; viability, T/C [2]: 69%; viability, T/C [7]: 81.3%; viability, T/C [8]: 68.3%; viability, T/C [13]: 81.2%; viability, T/C [14]: 65.2%; viability, T/C [19]: 81.1%; viability, T/C [20]: 61.1%; viability, T/C [24]: 12.4%; viability, T/C [25]: 91.2%; viability, T/C [26]: 60.1%; viability, T/C [27]: 47.5%; viability, T/C [28]: 29.5%; viability, T/C [29]: 14.4%; viability, T/C [30]: 7.67%
Cn1ncnc1[C@H]1c2n[nH]c(=O)c3cc(F)cc(c23)N[C@@H]1c1ccc(F)cc1 + Cn1nnc2c(C(N)=O)ncn2c1=O	537	216	57.3	< 9.49	< 9.49	81.8	68.7	33.1	7.3	68.4	55.3	25.1	7.36	42.8	26.3	10.4	7.26	13.4	10.1	7.36	viability, T/C [1]: 97.4%; viability, T/C [2]: 90.7%; viability, T/C [7]: 94.4%; viability, T/C [8]: 51.4%; viability, T/C [13]: 72.3%; viability, T/C [14]: 58.8%; viability, T/C [19]: 33%; viability, T/C [20]: 20.1%; viability, T/C [24]: 5.8%; viability, T/C [25]: 12.1%; viability, T/C [26]: 7.76%; viability, T/C [27]: 7.62%; viability, T/C [28]: 7.16%; viability, T/C [29]: 6.55%; viability, T/C [30]: 5.96%
O=C(c1cc(Cc2n[nH]c(=O)c3ccccc23)ccc1F)N1CCN(C(=O)C2CC2)CC1 + Cn1nnc2c(C(N)=O)ncn2c1=O	> 30000	25400	9760	3430	669	114	110	111	110	103	110	96.8	106	110	113	111	87.4	102	112	100	viability, T/C (second compound 1 µM, first compound 9.49 µM): 75%; viability, T/C (second compound 1 µM, first compound 30 µM): 58.5%; viability, T/C (second compound 3.16 µM, first compound 9.49 µM): 78.8%; viability, T/C (second compound 3.16 µM, first compound 30 µM): 45.2%; viability, T/C (second compound 10 µM, first compound 9.49 µM): 51.9%; viability, T/C (second compound 10 µM, first compound 30 µM): 17%; viability, T/C [24]: 54%; viability, T/C (second compound 31.6 µM, first compound 9.49 µM): 16.8%; viability, T/C (second compound 31.6 µM, first compound 30 µM): 8.16%; viability, T/C [27]: 77%; viability, T/C [28]: 72%; viability, T/C [29]: 40%; viability, T/C [30]: 15.7%; viability, T/C (second compound 100 µM, first compound 9.49 µM): 7.74%; viability, T/C (second compound 100 µM, first compound 30 µM): 6.29%
